Patent US8501794B2, “Compounds as cannabinoid receptor ligands” (priority 2007, dated 2013)
pKi: −log10 of the molar value. Where two headings read alike, the source gives them in different places.

Experiments:
human CB2 receptors = biological target: T1, human CB2 receptors (Homo sapiens, UniProt P34972); assay: human CB2 radioligand binding assay ([3H]CP-55,940 competition)
T1 construct: expressed in transfected cells; host or cells: HEK293

rat CB2 = biological target: T2, rat CB2 (Rattus norvegicus, UniProt Q9QZN9); assay: rat CB2 radioligand binding assay ([3H]CP-55,940 competition); set-up: expressed in transfected cells; host or cells: HEK293
T2 sequence (Q9QZN9 1-360): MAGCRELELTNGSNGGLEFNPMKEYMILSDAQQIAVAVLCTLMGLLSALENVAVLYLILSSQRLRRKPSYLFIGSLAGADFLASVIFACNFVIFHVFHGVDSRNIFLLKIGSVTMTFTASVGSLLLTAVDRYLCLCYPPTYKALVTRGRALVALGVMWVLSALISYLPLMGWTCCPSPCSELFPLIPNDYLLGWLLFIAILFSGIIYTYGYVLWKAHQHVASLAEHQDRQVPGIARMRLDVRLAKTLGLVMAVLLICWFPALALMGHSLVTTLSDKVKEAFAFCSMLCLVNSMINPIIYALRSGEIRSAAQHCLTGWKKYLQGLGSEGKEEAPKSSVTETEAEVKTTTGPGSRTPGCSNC

[1] = HEK293 membranes, 0.5 nM [3H]CP-55,940, read-out: human CB2 (Ki)
[2] = HEK293 membranes, 0.5 nM [3H]CP-55,940, read-out: rat CB2 (Ki)

T1 sequence (P34972 whole entry): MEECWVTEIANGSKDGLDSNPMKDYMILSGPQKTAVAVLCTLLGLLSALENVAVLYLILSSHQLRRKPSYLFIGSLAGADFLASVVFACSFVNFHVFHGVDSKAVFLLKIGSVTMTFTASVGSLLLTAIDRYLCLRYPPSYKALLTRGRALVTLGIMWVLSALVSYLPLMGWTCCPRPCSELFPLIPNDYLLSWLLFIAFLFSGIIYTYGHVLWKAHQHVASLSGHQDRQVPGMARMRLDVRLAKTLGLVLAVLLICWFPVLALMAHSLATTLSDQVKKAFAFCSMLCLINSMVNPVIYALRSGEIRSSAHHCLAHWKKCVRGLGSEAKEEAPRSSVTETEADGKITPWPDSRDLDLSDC

SMILES	pKi (human CB2 receptors)	pKi (rat CB2)	pKi (human CB2 receptors; [1])	pKi (rat CB2; [2])
CCCCc1cn(C(C)(C)C)s/c1=N\C(=O)C12CC3CC(C1)CC(C(=O)OC)(C3)C2 [Example 265, Methyl 3-({[(5Z)-4-butyl-2-tert-butylisothiazol-5(2H)-ylidene]amino}carbonyl)adamantane-1-carboxylate]	9.49	10.15	–	–
CCCCc1cn(C(C)(C)C)s/c1=N\C(=O)[C@H]1CC[C@@](C)(C(=O)N(C)C)C1(C)C [Example 183, (1R,3S)—N^3-[(5Z)-4-butyl-2-tert-butylisothiazol-5(2H)-ylidene]-N^1,N^1,1,2,2-pentamethylcyclopentane-1,3-dicarboxamide]	–	7.40	6.68	–
COc1ccc(Cl)cc1C(=O)/N=c1\sn(C(C)(C)C)cc1CCN1CCOCC1 [Example 12, N-[(5Z)-2-tert-butyl-4-(2-morpholin-4-ylethyl)isothiazol-5(2H)-ylidene]-5-chloro-2-methoxybenzamide]	–	7.92	6.64	–
COc1ccc(Cl)cc1C(=O)/N=c1\sn(C(C)(C)C)cc1C(O)c1ccccc1 (centres unmarked) [Example 31, N-[(5Z)-2-tert-butyl-4-[hydroxy(phenyl)methyl]isothiazol-5(2H)-ylidene]-5-chloro-2-methoxybenzamide]	7.20	8.24	–	–
CCCCc1c(C)n(C)s/c1=N\C(=O)C12CC3CC(CC1C3)C2 [Example 4, N-[(5Z)-4-butyl-2,3-dimethylisothiazol-5(2H)-ylidene]hexahydro-2,5-methanopentalene-3a(1H)-carboxamide]	8.42	8.49	–	–
CCCCc1cn(C(C)(C)C)s/c1=N\C(=O)[C@]1(C)CC[C@H](NC(=O)N2CC(O)C2)C1(C)C [Example 260, N-[(1S,3R)-3-({[(5Z)-4-butyl-2-tert-butylisothiazol-5(2H)-ylidene]amino}carbonyl)-2,2,3-trimethylcyclopentyl]-3-hydroxyazetidine-1-carboxamide]	–	–	6.72	6.44
CCCCc1cn(C(C)(C)C)s/c1=N\C(=O)c1cc(C(C)C)ccc1OC [Example 82, N-[(5Z)-4-butyl-2-tert-butylisothiazol-5(2H)-ylidene]-5-isopropyl-2-methoxybenzamide]	–	7.82	6.80	–
CCCCc1cn(C(C)(C)C)s/c1=N\C(=O)[C@]1(C)CC[C@H](NC(=O)NC)C1(C)C [Example 252, (1R,3S)—N-[(5Z)-4-butyl-2-tert-butylisothiazol-5(2H)-ylidene]-1,2,2-trimethyl-3-{[(methylamino)carbonyl]amino}cyclopentanecarboxamide]	8.21	7.73	–	–
CCCCc1cn(C(C)(C)C)s/c1=N\C(=O)c1cc(C#N)ccc1OCC(F)(F)F [Example 130, N-[(5Z)-4-butyl-2-tert-butylisothiazol-5(2H)-ylidene]-5-cyano-2-(2,2,2-trifluoroethoxy)benzamide]	7.09	8.55	–	–
CCCCc1cn(C(C)(C)C)s/c1=N\C(=O)[C@]1(C)CC[C@H](C(=O)NCc2cccnc2)C1(C)C [Example 235, (1R,3S)—N^1-[(5Z)-4-butyl-2-tert-butylisothiazol-5(2H)-ylidene]-1,2,2-trimethyl-N^3-(pyridin-3-ylmethyl)cyclopentane-1,3-dicarboxamide]	–	–	6.49	6.59
CCCCc1cn(C2CCC2)s/c1=N\C(=O)c1cc(Cl)ccc1OC [Example 3, N-[(5Z)-4-butyl-2-cyclobutylisothiazol-5(2H)-ylidene]-5-chloro-2-methoxybenzamide]	–	7.96	6.39	–
CCCCc1cn(C(C)(C)C)s/c1=N\C(=O)[C@]1(C)CC[C@H](C(=O)NC2CC2)C1(C)C [Example 208, (1R,3S)—N^1-[(5Z)-4-butyl-2-tert-butylisothiazol-5(2H)-ylidene]-N^3-cyclopropyl-1,2,2-trimethylcyclopentane-1,3-dicarboxamide]	–	7.96	6.70	–
COc1ccc(Cl)cc1C(=O)/N=c1\sn(C(C)(C)C)cc1Cc1cccs1 [Example 54, N-[(5Z)-2-tert-butyl-4-(thien-2-ylmethyl)isothiazol-5(2H)-ylidene]-5-chloro-2-methoxybenzamide]	7.77	9.00	–	–
CCCCc1cn(C(C)(C)C)s/c1=N\C(=O)[C@]1(C)CC[C@H](NC(=O)OC)C1(C)C [Example 215, Methyl (1S,3R)-3-({[(5Z)-4-butyl-2-tert-butylisothiazol-5(2H)-ylidene]amino}carbonyl)-2,2,3-trimethylcyclopentylcarbamate]	7.16	7.04	–	–
CCCCc1cn(C(C)(C)C)s/c1=N\C(=O)[C@]1(C)CC[C@H](NC(=O)N2CCC2)C1(C)C [Example 263, N-[(1S,3R)-3-({[(5Z)-4-butyl-2-tert-butylisothiazol-5(2H)-ylidene]amino}carbonyl)-2,2,3-trimethylcyclopentyl]azetidine-1-carboxamide]	7.48	7.11	–	–
CCCCc1cn(C(C)(C)C)s/c1=N\C(=O)c1cc(C(F)(F)F)ccc1OCc1cnccn1 [Example 198, N-[(5Z)-4-butyl-2-tert-butylisothiazol-5(2H)-ylidene]-2-(pyrazin-2-ylmethoxy)-5-(trifluoromethyl)benzamide]	–	–	6.60	6.95
CCCCc1cn(C(C)(C)C)s/c1=N\S(=O)(=O)c1ccccc1 [Example 119, N-[(5Z)-4-butyl-2-tert-butylisothiazol-5(2H)-ylidene]benzenesulfonamide]	–	7.48	6.77	–
CCCCc1cn(C(C)(C)C)s/c1=N\C(=O)c1cc(C(F)(F)F)ccc1OCC(C)(C)O [Example 262, N-[(5Z)-4-butyl-2-tert-butylisothiazol-5(2H)-ylidene]-2-(2-hydroxy-2-methylpropoxy)-5-(trifluoromethyl)benzamide]	8.22	8.36	–	–
CCCCc1cn(C(C)(C)C)s/c1=N\C(=O)[C@]1(C)CC[C@H](NC(=O)N2CCCC2)C1(C)C [Example 244, N-[(1S,3R)-3-({[(5Z)-4-butyl-2-tert-butylisothiazol-5(2H)-ylidene]amino}carbonyl)-2,2,3-trimethylcyclopentyl]pyrrolidine-1-carboxamide]	7.38	–	–	6.82
CCCCc1cn(C(C)(C)C)s/c1=N\C(=O)[C@]1(C)CC[C@H](C(=O)N2CC(F)(F)C2)C1(C)C [Example 185, (1R,3S)—N-[(5Z)-4-butyl-2-tert-butylisothiazol-5(2H)-ylidene]-3-[(3,3-difluoroazetidin-1-yl)carbonyl]-1,2,2-trimethylcyclopentanecarboxamide]	–	7.31	6.95	–
COc1ccc(Cl)cc1C(=O)/N=c1\sn(C(C)(C)C)cc1C(O)CC1CCC1 (centres unmarked) [Example 33, N-[(5Z)-2-tert-butyl-4-(2-cyclobutyl-1-hydroxyethyl)isothiazol-5(2H)-ylidene]-5-chloro-2-methoxybenzamide]	8.43	9.00	–	–
COC(=O)CCCc1cn(C(C)(C)C)s/c1=N\C(=O)c1cc(Cl)ccc1OC [Example 45, Methyl 4-{(5Z)-2-tert-butyl-5-[(5-chloro-2-methoxybenzoyl)imino]-2,5-dihydroisothiazol-4-yl}butanoate]	–	8.25	6.92	–
CCCCc1cn(C(C)(C)C)s/c1=N\C(=O)[C@]1(C)CC[C@H](C(=O)NCC(F)(F)F)C1(C)C [Example 238, (1R,3S)—N^1-[(5Z)-4-butyl-2-tert-butylisothiazol-5(2H)-ylidene]-1,2,2-trimethyl-N^3-(2,2,2-trifluoroethyl)cyclopentane-1,3-dicarboxamide]	7.64	7.85	–	–
CCCCc1cn(C(C)(C)C)s/c1=N\C(=O)[C@]1(C)CC[C@H](C2=NCCCO2)C1(C)C [Example 243, (1R,3S)—N-[(5Z)-4-butyl-2-tert-butylisothiazol-5(2H)-ylidene]-3-(5,6-dihydro-4H-1,3-oxazin-2-yl)-1,2,2-trimethylcyclopentanecarboxamide]	7.39	7.85	–	–
CCCCc1cn(C(C)(C)C)s/c1=N\C(=O)[C@@]1(C)CC[C@@H](NC(=O)NC)C1(C)C [Example 254, (1S,3R)—N-[(5Z)-4-butyl-2-tert-butylisothiazol-5(2H)-ylidene]-1,2,2-trimethyl-3-{[(methylamino)carbonyl]amino}cyclopentanecarboxamide]	7.08	–	–	6.97
CCCCc1cn(C(C)(C)C)s/c1=N\C(=O)[C@]1(C)CC[C@H](NC(=O)OCC)C1(C)C [Example 216, Ethyl (1S,3R)-3-({[(5Z)-4-butyl-2-tert-butylisothiazol-5(2H)-ylidene]amino}carbonyl)-2,2,3-trimethylcyclopentylcarbamate]	–	–	6.80	6.52
COc1ccc(Cl)cc1C(=O)/N=c1\sn(C(C)(C)C)cc1COCCF [Example 90, N-[(5Z)-2-tert-butyl-4-[(2-fluoroethoxy)methyl]isothiazol-5(2H)-ylidene]-5-chloro-2-methoxybenzamide]	–	7.57	6.55	–
CCCCc1cn(C(C)(C)C)s/c1=N\C(=O)[C@@H]1CC[C@](C)(NC(N)=O)C1(C)C [Example 246, (1R,3S)-3-[(aminocarbonyl)amino]-N-[(5Z)-4-butyl-2-tert-butylisothiazol-5(2H)-ylidene]-2,2,3-trimethylcyclopentanecarboxamide]	–	7.42	6.82	–
